Laboratory results reported in patent US12612395B2, “Rocaglate derivatives and uses thereof” (TRUSTEES OF BOSTON UNIVERSITY, priority 2023, dated 2026).
Where two headings read alike, the source gives them in different places.

Assays:
GBM0308 neurospheres = assay: Neurosphere formation assay (single neurosphere, PI/Hoechst); format: cell-based; conditions: 72 hours
Procedure: To gain additional mechanistic insights into GBM cell death induced by (−)-20, the inventors conducted several functional assays. The inventors first derived a single neurosphere from GBM0308 cells cultured in stem cell conditions, which was treated with either DMSO or (−)-20 at varying doses for three days followed by staining with PI and Hoechst dyes and subsequent imaging. […] To capture the kinetics of apoptotic events, the inventors employed caspase 3/7 staining of GBM0308 neurospheres treated with either DMSO or (−)-20 and subsequently evaluated at three timepoints over a 48-hour period. […] (FIG. 5B).
Neurosphere Formation Assays: Single neurospheres were generated by seeding GBM0308 cells (400 cells per well) in a 384-well ultra-low attachment round bottom microplate (Nexcelom Bioscience, ULA-384 U). The plates were then centrifuged at 300×g for 10 minutes to cluster cells at the bottom of the wells, followed by incubation at 37° C. and 5% CO2 for 4 days to allow the formation of single neurospheres and treated with either DMSO or drugs at concentrations of 3.3, 1.11, 0.37, 0.12, 0.041, 0.013, 0.004 μM. On Day 7, neurospheres were stained with propidium iodide and Hoechst, as described above. The “neurosphere 1+Mask” application was used to measure the fluorescent intensities of PI, using Celigo cytometer as described previously.^70

GBM0308 CSCs = assay: Dose-response killing of GBM CSCs (PI/Hoechst, Celigo cytometer); format: cell-based; conditions: for CSCs Max. observed efficacy (% dead cells): up to 10 μM
Source text: (§1) The inventors first evaluated a cohort of seven rocaglate translation inhibitors (1, 3-7, and 9, FIG. 1A and Table 1, compounds 2 and 8 were not tested due to unavailability). To assay for compounds that selectively affect GBM CSCs, the inventors employed the patient-derived tumor-initiating cell (TIC) cell line […] that forms neurospheres (consisting exclusively of tumor-initiating cells or CSCs) when cultured in neurobasal (NBE) medium. Upon exposure to serum and growth factor withdrawal, however, the cell line differentiates, acquires a flattened morphology, and forms a non-CSC population.^20 Thus, compounds can be tested in parallel to assess their effect on GBM CSCs vs. GBM non-CSCs as separate populations with a clean and robust response. This approach has been previously used to perform RNAi-based genetic screens to identify modulators of CSCs.^20 In this study, GBM0308 cells, cultured in stem cell conditions to form CSCs or in medium containing serum to induce differentiation into a non-CSC population, were treated in parallel with compounds at varying doses. Three days post-treatment, propidium iodide (PI) and Hoechst staining were performed and quantified using a Celigo image cytometer. Hoechst dye stained all […] nucleated cells, while PI exclusively stained dead cells. Cell viability and the percentage of cell death were then determined.
(§2) Cell Culture: Glioblastoma stem cell lines GBM0308, BT145, and BT112 were cultured in neurobasal (NBE medium) containing N-2 and B-27 supplements, EGF, bFGF, L-glutamine, and Penicillin-Streptomycin), as described previously.^19 Adherent GBM cells were cultured in serum-containing DMEM media (Invitrogen) supplemented with 10% fetal bovine serum (Corning Cellgro™). Cells were incubated at 37° C. and 5% CO2 to allow neurosphere formation. For seeding and subculturing, the neurospheres were gently trypsinized with 0.025% trypsin to form a single-cell suspension.
(§3) Dose-Response Testing in GBM Cells: Briefly, on day 1, cells were seeded in triplicate. For CSCs, 1500 cells/well were plated in a low attachment 96-well plate with NBE media and incubated for 3 days at 37° C. and 5% CO2 to allow the formation of neurospheres. For non-CSCs, 3000 cells/well were plated in a 96-well plate with DMEM media supplemented with 10% FBS. Similarly, the assay plates were also incubated for the same duration. Compound treatments started on day 4. Each compound was resuspended in DMSO and then diluted to different concentrations in media to a final concentration of DMSO less than 1%. The compounds were added at concentrations of 10, 3.3, 1.11, 0.37, 0.12, 0.041, 0.013, and 0.004 µM, respectively. DMSO-treated cells served as a control. After 72 h incubation with the compounds, fluorescent stains, propidium iodide, and Hoechst 33342 (Life Technologies, Carlsbad, CA), were used to stain the GBM cells to determine cell viability. A staining solution in 1×PBS was prepared by mixing PI and Hoechst 33342 to working concentrations of 2.5 μM and 20 μM, respectively. 20 μL of this staining solution was added per well, and plates were incubated at 37° C. and 5% CO2 for 60 min. After incubation, plates were read by Celigo imaging cytometer using an inbuilt Celigo application; Cell Viability (Dead+Total). For the viability measurement, the total number of neurospheres/cells and dead neurospheres/cells in each well were counted by the cytometer. The percentage of PI+ cells was normalized to DMSO and plotted against the drug concentration to calculate the EC50 with a four-parameter, variable-slope dose-response curve with an upper constraint of <100% dead cells and a lower constraint of =0% dead cells (GraphPad Prism v.10.0.0). For all dose response experiments, the experimental maximal efficacy (maximum observed % cell death) is reported. Relative EC50 values are reported for all compounds killing >50% of cells.

GBM0308 non-CSCs = assay: Dose-response killing of GBM non-CSCs (PI/Hoechst, Celigo cytometer); format: cell-based; conditions: 72 h; for Non-CSCs Max. observed efficacy (% dead cells): Table 1, up to 10 μM; for Emax: Homo sapiens
Source text: as §1, §2, §3

eIF4A paralogs (eIF4A1) = assay: PISA assay in GBM0308 cell lysates, eIF4A; format: binding, human; conditions: GBM0308 lysate, compound 10 μM, AMP-PNP and (AG)8 RNA added
Source text: (§4) Derivatization-free target identification using a modified proteome integral solubility alteration (PISA) assay. The inventors next pursued proteome-wide target identification to better understand the target profiles of CSC-selective rocaglates. To enable cross-compound comparisons of target engagement, the inventors opted to use the Proteome Integral Solubility Alteration (PISA) assay,^29 a derivative of the mass spectrometry-based Cellular Thermal Shift Assay (MS-CETSA). In MS-CETSA,^30,31 target engagement is inferred through proteome-wide analysis of compound-induced changes to protein thermal stability; proteins with a shift in their half-maximal thermal denaturation temperature upon compound treatment are flagged as potential targets. The PISA assay obviates the need for MS-CETSA-derived thermal denaturation curves through curve integration by pooling of individual temperature points into a single “integral” sample for each treatment condition, thereby increasing throughput (FIG. 9). In contrast to MS-CETSA (which relies on curve comparisons), PISA determinations are performed by simply comparing soluble protein abundance levels between compound- and DMSO-treated samples. Importantly, protein fold-change measurements in PISA experiments generally scale with the thermal shift derived from CETSA experiments, and the magnitude of a thermal shift can inform on relative affinity between compounds and individual targets.^30,32-25 Maximal stability changes are protein-specific,^36 however, precluding estimations of preference for one target over another. Thus, PISA allows for simultaneous target profiling and comparisons of binding affinity between different compounds within a given target.
(§5) Of note, we also detected stabilization of DDX3Y, a paralog which shares >90% sequence similarity with DDX3X.
PISA assay in GBM0308 cell lysates: The PISA assay was performed in lysates as described by Gaetani and coworkers^S2 with slight modification. Pelleted GBM0308 cells were resuspended in ice-cold lysis buffer (1×PBS pH 7.4, 2 mM MgCl2, 0.5 mM AMP-PNP, 1 μM (AG)8 RNA, HALT protease inhibitor cocktail EDTA-free) and subjected to three freeze-thaw cycles with liquid nitrogen to extract lysate proteins. Thawing was performed at room temperature until ˜80% thawed, then completed on ice. Lysate was clarified by centrifugation for 10 minutes at 20,000 RCF and 4° C., transferred to a fresh Eppendorf tube, then centrifuged again for 10 minutes at 20,000 RCF and 4° C. to ensure removal of debris. Lysate concentration was determined using a Pierce BCA Protein Assay Kit and adjusted to 2.0 mg/mL in lysis buffer. Lysate was mixed 1:1 with a 2× solution of test compound or DMSO in lysis buffer, gently aspirated to ensure proper mixing, and incubated at room temperature for 10 minutes. […]

DDX3X = biological target: T1, DDX3X (Homo sapiens, UniProt O00571); assay: PISA assay in GBM0308 cell lysates, DDX3X; format: binding; conditions: GBM0308 lysate, compound 10 μM, AMP-PNP and (AG)8 RNA added
T1 construct: endogenous in cells; host or cells: GBM0308 glioblastoma stem cells (lysate)
T1 sequence (O00571 whole entry): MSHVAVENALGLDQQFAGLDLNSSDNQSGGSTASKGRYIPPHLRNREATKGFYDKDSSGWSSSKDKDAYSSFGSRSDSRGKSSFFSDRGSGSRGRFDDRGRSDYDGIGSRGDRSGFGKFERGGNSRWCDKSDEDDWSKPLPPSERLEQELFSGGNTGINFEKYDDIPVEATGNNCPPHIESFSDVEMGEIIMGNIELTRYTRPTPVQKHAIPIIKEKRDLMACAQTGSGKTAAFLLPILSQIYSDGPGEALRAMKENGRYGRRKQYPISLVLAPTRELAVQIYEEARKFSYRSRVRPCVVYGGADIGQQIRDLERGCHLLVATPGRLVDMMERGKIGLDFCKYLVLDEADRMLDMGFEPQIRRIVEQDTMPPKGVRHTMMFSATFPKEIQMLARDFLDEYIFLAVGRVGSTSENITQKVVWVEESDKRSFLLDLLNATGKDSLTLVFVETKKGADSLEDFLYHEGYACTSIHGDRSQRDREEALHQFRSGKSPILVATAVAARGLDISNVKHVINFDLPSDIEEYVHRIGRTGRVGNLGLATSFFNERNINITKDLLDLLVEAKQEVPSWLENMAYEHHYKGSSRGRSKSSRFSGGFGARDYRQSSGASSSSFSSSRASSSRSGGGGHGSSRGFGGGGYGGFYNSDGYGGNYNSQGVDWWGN
Source text: as §4, §5
PISA assay in GBM0308 cell lysates: The PISA assay was performed in lysates as described by Gaetani and coworkers^S2 with slight modification. […] Lysate concentration was determined using a Pierce BCA Protein Assay Kit and adjusted to 2.0 mg/mL in lysis buffer. […]

[1] = Table 1, GBM0308 CSCs, 72 h treatment, relative EC50, given for compounds causing at least 50% cell death, read-out: CSCs EC50
[2] = Homo sapiens, 72 h, read-out: CSCs EC50 (μM), Table 2, GBM0308 CSCs, 72 h treatment, relative EC50
[3] = Homo sapiens, 72 h, read-out: CSCs Max. observed efficacy (% dead cells), Table 2, GBM0308 CSCs, 72 h, highest tested concentration 10 μM
[4] = read-out: CSCs EC50, Table 2, GBM0308 CSCs, 72 h treatment, relative EC50
[5] = read-out: Non-CSCs Max. observed efficacy (% dead cells), Table 2, GBM0308 non-CSCs, highest tested concentration 10 μM
[6] = Homo sapiens, 72 h, read-out: CSC Max. observed efficacy (% dead cells), Table 7, cell line not given
[7] = Homo sapiens, read-out: CSC EC50 (μM), Table 7, cell line not given
[8] = read-out: Non-CSC Max. observed efficacy (% dead cells), Table 7, cell line not given

## RK-33 [reference compound]
GBM0308 neurospheres
  concentration required to observe a noticeable effect on neurosphere size: > 3 µM

## rocaglamide A [(−)-1, reference compound]
GBM0308 CSCs; Table 1, GBM0308 CSCs, 72 h
  CSCs Max. observed efficacy (% dead cells): 84%
GBM0308 CSCs; [1]
  EC50: 0.387 µM
GBM0308 non-CSCs; GBM0308 non-CSCs
  Non-CSCs Max. observed efficacy (% dead cells): 31%
eIF4A paralogs (eIF4A1)
  thermal stabilization of eIF4A paralogs (PISA), in words: thermal stabilization
DDX3X
  thermal stabilization of DDX3X (PISA), in words: thermal stabilization

## COc1ccc([C@@]23Oc4cc(OC)cc(OC)c4[C@]2(O)[C@H](O)[C@H](C(=O)NS(=O)(=O)N(C)C)[C@H]3c2ccccc2)cc1 [(−)-16, (1R,2R,3S,3aR,8bS)—N—(N,N-dimethylsulfamoyl)-1,8b-dihydroxy-6,8-dimethoxy-3a-(4-methoxyphenyl)-3-phenyl-2,3,3a,8b-tetrahydro-1H-cyclopenta[b]benzofuran-2-carboxamide]
GBM0308 CSCs; [2]
  EC50: 1 to 10 µM
GBM0308 CSCs; [3]
  Emax: 76%
GBM0308 CSCs; [4]
  EC50: 1.73 µM
GBM0308 non-CSCs; [5]
  Emax: 23%

## COc1ccc([C@@]23Oc4cc(OC)cc(OC)c4[C@]2(O)[C@H](O)[C@H](C(=O)NS(C)(=O)=O)[C@H]3c2ccccc2)cc1 [(−)-15, (1R,2R,3S,3aR,8bS)-1,8b-dihydroxy-6,8-dimethoxy-3a-(4-methoxyphenyl)-N-(methylsulfonyl)-3-phenyl-2,3,3a,8b-tetrahydro-1H-cyclopenta[b]benzofuran-2-carboxamide]
GBM0308 CSCs; [2]
  EC50: 1 to 10 µM
GBM0308 CSCs; [3]
  Emax: 85%
GBM0308 CSCs; [4]
  EC50: 0.98 µM
GBM0308 non-CSCs; [5]
  Emax: 19%

## COc1ccc([C@@]23Oc4cc(OC)cc(OC)c4[C@]2(O)[C@H](O)[C@H](C(=O)N(C)OC)[C@H]3c2ccccc2)cc1 (racemic) [rac-6, rohinitib, reference compound]
GBM0308 CSCs; Table 1, GBM0308 CSCs, 72 h
  CSCs Max. observed efficacy (% dead cells): 81%
GBM0308 CSCs; [1]
  EC50: 0.922 µM
GBM0308 non-CSCs; GBM0308 non-CSCs
  Non-CSCs Max. observed efficacy (% dead cells): 25%

## COc1cc(OC)c2c(c1)O[C@@]1(c3ccc(C(F)(F)F)cc3)[C@H](c3ccccc3)[C@@H](C(=O)NS(=O)(=O)N(C)C)[C@@H](O)[C@@]21O [ZW-12-29, (1R,2R,3S,3aR,8bS)—N—(N,N-dimethylsulfamoyl)-1,8b-dihydroxy-6,8-dimethoxy-3-phenyl-3a-(4-(trifluoromethyl)phenyl)-2,3,3a,8b-tetrahydro-1H-cyclopenta[b]benzofuran-2-carboxamide]
GBM0308 CSCs; [6]
  Emax: 57%
GBM0308 CSCs; [7]
  EC50: 5.63 µM
GBM0308 non-CSCs; [8]
  Emax: 26%

## COc1cc(OC)c2c(c1)O[C@@]1(c3ccc(C#N)cc3)[C@H](c3ccccc3)[C@@H](C(=O)NS(=O)(=O)N(C)C)[C@@H](O)[C@@]21O [ZW-12-30, (1R,2R,3S,3aR,8bS)-3a-(4-cyanophenyl)-N—(N,N-dimethylsulfamoyl)-1,8b-dihydroxy-6,8-dimethoxy-3-phenyl-2,3,3a,8b-tetrahydro-1H-cyclopenta[b]benzofuran-2-carboxamide]
GBM0308 CSCs; [6]
  Emax: 94%
GBM0308 CSCs; [7]
  EC50: 0.632 µM
GBM0308 non-CSCs; [8]
  Emax: 21%

## COc1cc(OC)c2c(c1)O[C@@]1(c3ccc(Br)cc3)[C@H](c3ccccc3)[C@@H](C(=O)NS(=O)(=O)N(C)C)[C@@H](O)[C@@]21O (racemic) [BUCMD747 (rac), (1R,2R,3S,3aR,8bS)-3a-(4-bromophenyl)-N-(N,N-dimethylsulfamoyl)-1,8b-dihydroxy-6,8-dimethoxy-3-phenyl-2,3,3a,8b-tetrahydro-1H-cyclopenta[b]benzofuran-2-carboxamide]
GBM0308 CSCs; Homo sapiens, 72 h, Table 7, cell line not given, read-out: CSC Max. observed efficacy (% dead cells)
  Emax: 89%
GBM0308 CSCs; Homo sapiens, Table 7, cell line not given, read-out: CSC EC50
  EC50: 0.453 µM
GBM0308 non-CSCs; Table 7, cell line not given, read-out: Non-CSC Max. observed efficacy (% dead cells)
  Emax: 27%
